According to US11866450B2, “Modulators of Cystic Fibrosis Transmembrane Conductance regulator, pharmaceutical compositions, methods of treatment, and process for making the modulators” (priority 2018, dated 2024):
“And” between values parts separate entries of the source, which are not always exact repeats. Identical values can stand only once. Like-named read-outs stand apart in the source and are kept apart here.

Experiments:
[1] = snar bond, DMSO
[2] = target: CFTR-mediated chloride transport (Homo sapiens, UniProt P13569); assay type: cell-based; conditions: enteroid cells incubated with test compound 18-24 hours, acute 10 μM forskolin and 300 nM Compound III; for Max. Activity: % of chloride transport with 3 μM Compound A, 3 μM Compound II and 300 nM acute Compound III triple combination control
How it was run: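 Membrane-potential fluorescence AUC over 15 min quantified CFTR chloride transport after acute forskolin (10 μM), IBMX (100 μM) and Compound III (300 nM) in chloride-free buffer. Human enteroid cells were pretreated with compound for 18–24 h; % Activity is relative to 3 μM Compound A + 3 μM Compound II + 300 nM Compound III.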

[3] = from Cc1c(S(=O)(=O)NC(=O)c2ccc(-n3ccc(OCC(C)(C)C(F)(F)F)n3)nc2Cl)cnn1CCCC1CNC(C)(C)C1, 14-membered ring, K2CO3/CsF/3A MS, 25.9 mM, 150.0 °C

CFTR-mediated chloride transport, sequence (P13569 whole entry, looked up): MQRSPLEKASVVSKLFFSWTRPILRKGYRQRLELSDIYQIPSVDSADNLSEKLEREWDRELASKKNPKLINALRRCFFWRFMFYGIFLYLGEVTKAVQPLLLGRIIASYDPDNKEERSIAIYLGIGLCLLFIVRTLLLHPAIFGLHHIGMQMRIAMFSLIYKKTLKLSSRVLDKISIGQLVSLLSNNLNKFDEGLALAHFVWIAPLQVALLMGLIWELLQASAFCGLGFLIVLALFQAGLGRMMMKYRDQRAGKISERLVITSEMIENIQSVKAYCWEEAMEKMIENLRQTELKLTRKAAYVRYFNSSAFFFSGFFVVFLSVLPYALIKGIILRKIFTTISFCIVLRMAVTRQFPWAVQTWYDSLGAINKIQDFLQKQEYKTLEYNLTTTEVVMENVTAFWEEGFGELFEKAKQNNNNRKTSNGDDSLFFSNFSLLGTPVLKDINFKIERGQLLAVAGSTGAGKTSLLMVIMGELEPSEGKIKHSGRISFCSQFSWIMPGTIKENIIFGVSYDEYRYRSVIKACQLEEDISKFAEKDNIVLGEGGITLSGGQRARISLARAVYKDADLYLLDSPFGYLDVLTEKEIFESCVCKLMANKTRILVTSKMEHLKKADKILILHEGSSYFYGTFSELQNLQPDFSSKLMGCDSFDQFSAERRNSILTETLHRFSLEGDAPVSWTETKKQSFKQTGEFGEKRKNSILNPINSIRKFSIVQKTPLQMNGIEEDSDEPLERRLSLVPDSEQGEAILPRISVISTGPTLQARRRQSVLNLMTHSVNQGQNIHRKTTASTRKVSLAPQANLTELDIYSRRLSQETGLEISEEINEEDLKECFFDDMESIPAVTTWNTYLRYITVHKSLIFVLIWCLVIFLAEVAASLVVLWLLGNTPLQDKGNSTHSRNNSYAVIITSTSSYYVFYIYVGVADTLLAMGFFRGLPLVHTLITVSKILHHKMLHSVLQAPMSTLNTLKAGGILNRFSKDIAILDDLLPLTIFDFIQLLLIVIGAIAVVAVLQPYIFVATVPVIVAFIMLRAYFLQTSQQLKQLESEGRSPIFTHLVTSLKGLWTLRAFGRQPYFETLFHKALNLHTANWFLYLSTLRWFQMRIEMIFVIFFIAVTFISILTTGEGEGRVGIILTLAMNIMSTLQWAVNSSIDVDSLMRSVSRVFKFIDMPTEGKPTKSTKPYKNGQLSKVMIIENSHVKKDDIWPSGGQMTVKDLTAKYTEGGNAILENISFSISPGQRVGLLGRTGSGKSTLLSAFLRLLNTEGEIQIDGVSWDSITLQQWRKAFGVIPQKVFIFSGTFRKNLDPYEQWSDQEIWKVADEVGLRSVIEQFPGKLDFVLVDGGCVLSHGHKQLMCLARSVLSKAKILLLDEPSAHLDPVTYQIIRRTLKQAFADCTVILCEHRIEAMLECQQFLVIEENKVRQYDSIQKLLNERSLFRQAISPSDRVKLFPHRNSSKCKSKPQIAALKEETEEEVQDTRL

Cc1c2cnn1CCCCC1CN(c3nc(-n4ccc(OCCC5(C(F)(F)F)CC5)n4)ccc3C(=O)NS2(=O)=O)C(C)(C)C1 (centres unmarked)
ring closure, yield after HPLC ([1]; from Cc1c(S(=O)(=O)NC(=O)c2ccc(-n3ccc(OCCC4(C(F)(F)F)CC4)n3)nc2Cl)cnn1CCCCC1CNC(C)(C)C1, 15-membered ring, K2CO3/CsF, 130.1 mM, 150.0 °C): 13%

Cc1nn2cc1S(=O)(=O)NC(=O)c1ccc(-n3ccc(OCCC4(C(F)(F)F)CC4)n3)nc1N1CC(CCCC2)CC1(C)C (centres unmarked) [Compound 71, 12,21,21-trimethyl-4-(3-{2-[1-(trifluoromethyl)cyclopropyl]ethoxy}-1H-pyrazol-1-yl)-10λ^6-thia-1,3,9,13,14-pentaazatetracyclo[17.2.1.111,14.02,7]tricosa-2,4,6,11(23),12-pentaene-8,10,10-trione]
EC50 [2]: > 3 µM
Max. Activity [2]: + (+ is <30%)
ring closure, yield after HPLC ([1]; from Cc1nn(CCCCC2CNC(C)(C)C2)cc1S(=O)(=O)NC(=O)c1ccc(-n2ccc(OCCC3(C(F)(F)F)CC3)n2)nc1Cl, 15-membered ring, K2CO3/CsF, 130.1 mM, 150.0 °C): 50%

CC1(C)C[C@@H]2CCCNc3cccc(n3)S(=O)(=O)NC(=O)c3ccc(-n4ccc(OCCC(C)(C)C(F)(F)F)n4)nc3N1C2 [Compound 212, (14S)-12,12-Dimethyl-8-[3-(4,4,4-trifluoro-3,3-dimethylbutoxy)-1H-pyrazol-1-yl]-2λ^6-thia-3,9,11,18,23-pentaazatetracyclo[17.3.1.111,14.05,10]tetracosa-1(22),5,7,9,19(23),20-hexaene-2,2,4-trione]
EC50 [2]: < 1 µM
Max. Activity [2]: +++ (+++ is >60%)
ring closure, yield after HPLC ([1]; from CC(C)(C)OC(=O)N1C[C@@H](CCCNc2cccc(S(=O)(=O)NC(=O)c3ccc(-n4ccc(OCCC(C)(C)C(F)(F)F)n4)nc3Cl)n2)CC1(C)C, 15-membered ring, K2CO3/CsF/3A MS, 21.2 mM, 130.0 °C, 2 steps): 51%

CC1(C)CC2CCCn3nccc3S(=O)(=O)NC(=O)c3ccc(Cl)nc3N1C2 (centres unmarked)
ring closure, yield after HPLC ([1]; from tert-butyl 4-[3-[3-1(2,6-dichloropyridine-3-carbonyl)sulfamoyl]pyrazol-1-yl]propyl]-2,2-dimethyl-pyrrolidine-1-carboxylate, TFA (Boc off), CsF/K2CO3/3A MS, 89.2 mM, 140.0 °C, 2 steps): 4%

Cc1c2cnn1CCCC1CN(c3nc(-n4ccc(OCCC5(C(F)(F)F)CC5)n4)ccc3C(=O)NS2(=O)=O)C(C)(C)C1 (centres unmarked) [Compound 18, 20,20,22-trimethyl-4-(3-{2-[1-(trifluoromethyl)cyclopropyl]ethoxy}-1H-pyrazol-1-yl)-10λ^6-thia-1,3,9,13,14-pentaazatetracyclo[16.2.1.111,14.02,7]docosa-2,4,6,11(22),12-pentaene-8,10,10-trione]
EC50 [2]: < 1 µM
Max. Activity [2]: ++ (++ is 30-60%)
ring closure, yield after HPLC ([1]; from Cc1c(S(=O)(=O)NC(=O)c2ccc(-n3ccc(OCCC4(C(F)(F)F)CC4)n3)nc2Cl)cnn1CCCC1CNC(C)(C)C1, 14-membered ring, K2CO3/CsF/3A MS, 31.9 mM, 150.0 °C): 7%

Cc1c2cnn1CCCC1CN(c3nc(-n4ccc(OCC(C)(C)C(F)(F)F)n4)ccc3C(=O)NS2(=O)=O)C(C)(C)C1 (single isomer, unassigned; atropisomer 2)
ring closure, yield after HPLC [1, 3]: 4%

Cc1c2cnn1CCCC1CN(c3nc(-n4ccc(OCC(C)(C)C(F)(F)F)n4)ccc3C(=O)NS2(=O)=O)C(C)(C)C1 (single isomer, unassigned; atropisomer 1)
ring closure, yield after HPLC [1, 3]: 10%

Cc1cn2nc1S(=O)(=O)NC(=O)c1ccc(-n3ccc(OCCC(C4CC4)C4CC4)n3)nc1N1CC(CCC2)CC1(C)C (centres unmarked)
ring closure, yield after HPLC ([1]; from Cc1cn(CCCC2CNC(C)(C)C2)nc1S(=O)(=O)NC(=O)c1ccc(-n2ccc(OCCC(C3CC3)C3CC3)n2)nc1Cl, 14-membered ring, K2CO3/CsF/3A MS, 58.8 mM, 150.0 °C): 38%

CC1(C)CC2CCCNc3cccc(n3)S(=O)(=O)NC(=O)c3ccc(Cl)nc3N1C2 (centres unmarked)
ring closure, yield after HPLC ([1]; from CC1(C)CC(CCCNc2cccc(S(=O)(=O)NC(=O)c3ccc(Cl)nc3Cl)n2)CN1, 15-membered ring, K2CO3/CsF/3A MS, 82.2 mM, 140.0 °C): 38%

[2H]C([2H])(Oc1ccn(-c2ccc3c(n2)N2C[C@@H](CCCNc4nc(ccc4OCc4ccccc4)S(=O)(=O)NC3=O)CC2(C)C)n1)C([2H])([2H])C1C2(CC2)C12CC2
ring closure, yield after HPLC ([1]; from [2H]C([2H])(Oc1ccn(-c2ccc(C(=O)NS(=O)(=O)c3ccc(OCc4ccccc4)c(NCCC[C@@H]4CN(C(=O)OC(C)(C)C)C(C)(C)C4)n3)c(Cl)n2)n1)C([2H])([2H])C1C2(CC2)C12CC2, 15-membered ring, K2CO3/4A MS, 100.9 mM, 140.0 °C, 2 steps): 44%

CC1(C)CC2CCNc3cccc(n3)S(=O)(=O)NC(=O)c3ccc(-n4ccc(OCCCC5(C(F)(F)F)CC5)n4)nc3N1C2 (centres unmarked)
ring closure, yield after HPLC ([1]; from CC1(C)CC(CCNc2cccc(S(=O)(=O)NC(=O)c3ccc(-n4ccc(OCCCC5(C(F)(F)F)CC5)n4)nc3Cl)n2)CN1, 14-membered ring, K2CO3/CsF/3A MS, 128.0 mM, 150.0 °C): 43%

CC1(C)CCC2CCCNc3cccc(n3)S(=O)(=O)NC(=O)c3ccc(Cl)nc3N21 (centres unmarked)
ring closure, yield after HPLC ([1]; from CC1(C)CCC(CCCNc2cccc(S(=O)(=O)NC(=O)c3ccc(Cl)nc3Cl)n2)N1, 14-membered ring, K2CO3/CsF/4A MS, 63.7 mM, 150.0 °C): 24%

Cc1c2cnn1CCC[C@@H]1CN(c3nc(-n4ccc(OCCC5(C(F)(F)F)CC5)n4)ccc3C(=O)NS2(=O)=O)C(C)(C)C1
ring closure, yield after HPLC ([1]; from Cc1c(S(=O)(=O)NC(=O)c2ccc(-n3ccc(OCCC4(C(F)(F)F)CC4)n3)nc2Cl)cnn1CCC[C@@H]1CNC(C)(C)C1, 14-membered ring, K2CO3/CsF, 37.8 mM, 160.0 °C): 6% and 16%

CC1(C)CC2CCNc3cccc(n3)S(=O)(=O)NC(=O)c3ccc(-n4ccc(OCCC(C5CC5)C5CC5)n4)nc3N1C2 (single isomer, unassigned; enantiomer 2)
ring closure, yield after HPLC ([1]; from CC1(C)CC(CCNc2cccc(S(=O)(=O)NC(=O)c3ccc(-n4ccc(OCCC(C5CC5)C5CC5)n4)nc3Cl)n2)CN1, 14-membered ring, K2CO3/CsF/3A MS, 22.7 mM, 150.0 °C): 29%

CC1(C)CC2CCNc3cccc(n3)S(=O)(=O)NC(=O)c3ccc(-n4ccc(OCCC(C5CC5)C5CC5)n4)nc3N1C2 (single isomer, unassigned; enantiomer 1)
ring closure, yield after HPLC ([1]; from CC1(C)CC(CCNc2cccc(S(=O)(=O)NC(=O)c3ccc(-n4ccc(OCCC(C5CC5)C5CC5)n4)nc3Cl)n2)CN1, 14-membered ring, K2CO3/CsF/3A MS, 24.9 mM, 150.0 °C): 41%

Cc1ccc2nc1NCCCC1CN(c3nc(-n4ccc(OCCC5(C(F)(F)F)CC5)n4)ccc3C(=O)NS2(=O)=O)C(C)(C)C1 (centres unmarked)
ring closure, yield after HPLC ([1]; from Cc1ccc(S(=O)(=O)NC(=O)c2ccc(-n3ccc(OCCC4(C(F)(F)F)CC4)n3)nc2Cl)nc1NCCCC1CNC(C)(C)C1, 15-membered ring, K2CO3/CsF/4A MS, 61.3 mM, 140.0 °C, 16.0 h): 42%

CC1(C)CCC2CCCOc3cccc(c3)S(=O)(=O)NC(=O)c3ccc(-n4ccc(OCCC5(C(F)(F)F)CC5)n4)nc3N21 (centres unmarked)
ring closure, yield after HPLC ([1]; from CC(C)(C)OC(=O)N1C(CCCOc2cccc(S(=O)(=O)NC(=O)c3ccc(-n4ccc(OCCC5(C(F)(F)F)CC5)n4)nc3Cl)c2)CCC1(C)C, 14-membered ring, K2CO3, then CsF, 64.2 mM, 170.0 °C, 2 steps): 4%

CC1(C)CC2CCCn3ccc(n3)S(=O)(=O)NC(=O)c3ccc(Cl)nc3N1C2 (centres unmarked)
ring closure, yield after HPLC ([1]; from CC(C)(C)OC(=O)N1CC(CCCn2nccc2S(=O)(=O)NC(=O)c2ccc(Cl)nc2Cl)CC1(C)C, 14-membered ring, K2CO3/CsF/3A MS, 89.2 mM, 140.0 °C, 2 steps): 12%

Cc1nn2cc1S(=O)(=O)NC(=O)c1ccc(-n3ccc(OCC(C)(C)C(F)(F)F)n3)nc1N1C[C@H](CCC2)CC1(C)C (single isomer, unassigned) [Compound 290, 12,20,20-trimethyl-4-[3-(3,3,3-trifluoro-2,2-dimethylpropoxy)-1H-pyrazol-1-yl]-10λ^6-thia-1,3,9,13,14-pentaazatetracyclo[16.2.1.111,14.02,7]docosa-2,4,6,11(22),12-pentaene-8,10,10-trione]
EC50 [2]: > 3 µM
Max. Activity [2]: + (+ is <30%)

CC1(C)C[C@H]2CNc3cccc(n3)S(=O)(=O)NC(=O)c3ccc(-n4ccc(OCCC5(C(F)(F)F)CC5)n4)nc3N1C2 (single isomer, unassigned) [Compound 24, 6,6-dimethyl-10-(3-{2-[1-(trifluoromethyl)cyclopropyl]ethoxy}-1H-pyrazol-1-yl)-16λ^6-thia-2,7,9,15,21-pentaazatetracyclo[15.3.1.14,7.08,13]docosa-1(20),8,10,12,17(21),18-hexaene-14,16,16-trione]
EC50 [2]: > 3 µM
Max. Activity [2]: + (+ is <30%)

CN1CCC[C@@H]2CCC(C)(C)N2c2nc(-n3ccc(OCCC4(C(F)(F)F)CC4)n3)ccc2C(=O)NS(=O)(=O)c2cccc1n2 [Compound 11, (15R)-12,12,19-trimethyl-8-(3-{2-[1-(trifluoromethyl)cyclopropyl]ethoxy}-1H-pyrazol-1-yl)-2λ^6-thia-3,9,11,19,24-pentaazatetracyclo[18.3.1.05,10.011,15]tetracosa-1(24),5(10),6,8,20,22-hexaene-2,2,4-trione]
EC50 [2]: < 1 µM
Max. Activity [2]: +++ (+++ is >60%)

CC1(C)C[C@@H]2CCCNc3cccc(n3)S(=O)(=O)NC(=O)c3ccc(N4CC[C@H](CCCC5(C(F)(F)F)CC5)C4=O)nc3N1C2 (single isomer, unassigned) [Compound 175]
EC50 [2]: < 1 µM
Max. Activity [2]: +++ (+++ is >60%)
